Data taken from PMC4210897, “Antimicrobial Activity of Peptides Derived from Olive Flounder Lipopolysaccharide Binding Protein/Bactericidal Permeability-Increasing Protein (LBP/BPI)” (Marine Drugs, 2014).
Where no end group is shown, it is not given here.

How the values were obtained:
C. albicans = assay: URDA of non-heated and heated peptides; format: cell-based, Candida albicans; details: non-heated and after 100 °C for 10 min
Procedure: (§1) The antimicrobial activity of the purified peptide was assessed as described previously. We tested the synthetic peptides against several Gram-positive bacteria including two Bacillus subtilis strains, Micrococcus luteus, Staphylococcus aureus, and Streptococcus iniae, Gram-negative bacteria including three Escherichia coli strains, Aeromonas hydrophila, Edwardsiella tarda, Pseudomonas aeruginosa, Vibrio parahemolyticus, and Salmonella enteric, as well as the yeast Candida albicans. All strains were grown overnight for 18 h in trypticase soy broth (TSB) or sabouraud dextrose broth (SDB) at the appropriate temperature (25 °C for A. hydrophila, E. tarda, P. aeruginosa, S. iniae, and V. parahemolyticus and 37 °C for the other strains). After an overnight incubation, the bacterial and C. albicans suspensions were diluted to a McFarland turbidity standard of 0.5 (Vitek Colorimeter #52-1210; Hach, Loveland, CO, USA) corresponding to ~10^8 CFU/mL for bacteria and ~10^6 CFU/mL for C. albicans. One-half milliliter of diluted bacterial or C. albicans suspension was added to 9.5 mL of underlay gel containing 5 × 10^6 CFU/mL or 5 × 10^4 CFU/mL in 10 mM phosphate buffer (PB; pH 6.6) with 0.03% TSB or 0.03% SDB and 1% Type I (low EEO) agarose. The purified peptide was serially diluted twofold in 5 μL of acidified water (0.01% HAc), and each dilution was added to 2.5-mm-diameter wells made in the 1-mm-thick underlay gels. After incubation for 3 h at either 25 °C (for A. hydrophila, E. tarda, P. aeruginosa, S. iniae, and V. parahemolyticus) or 37 °C (the other strains), the bacterial or yeast suspension was overlaid with 10 mL of double-strength overlay gel containing 6% TSB or 6% SDB with 10 mM PB (pH 6.6) in 1% agarose. Plates were incubated for an additional 18–24 h, after which the clearing zone diameters were measured. After subtracting the diameter of the well, the clearing zone diameter was expressed in units (0.1 mm = 1 U).
(§2) To investigate the effect of temperature on ofLBP analogs, antimicrobial activity was tested using an ultrasensitive radial diffusion assay (URDA) against two bacteria including V. harveyi and S. iniae, as well as a yeast, C. albicans. To explore thermal stability, the ofLBP analogs were incubated at 100 °C for 10 min. After heat treatment, the peptides were cooled and used for URDA as described above.

DNA polymerase = details: PCR of E. coli 16S rDNA; for DNA polymerase inhibitory ability: 100 ng genomic DNA, 30 cycles
Procedure: The ofLBP analogs were dissolved in 0.01% acetic acid at a concentration of 1000 μg/mL. To assess PCR inhibition, various concentrations of the ofLBP analogs (2.5, 1.25, 0.625, and 0.313 μg/mL) were added to the respective reaction mixtures. E. coli genomic DNA (100 ng) was used as a template for PCR with the following primer pairs: 16S-F1, 5′-[…]-3′ and 16S-R3, 5′-[…]-3′. The predicted amplicon is ~1.5 kb in length. Each PCR comprised 30 cycles each of 30 s at 95 °C, 30 s at 55 °C, and 1 min at 72 °C. After PCR, all amplicons were electrophoresed in 1.0% agarose gels containing EtBr.

S. iniae = assay: URDA of non-heated and heated peptides; format: cell-based, Streptococcus iniae; details: non-heated and after 100 °C for 10 min
Procedure: as §1, §2

[1] = tested on: human red blood cells (RBCs, blood type O); assay: Hemolytic activity assay; format: cell-based; details: 3% hematocrit, 60 min, 37 °C; for Hemolysis against RBCs up to 100 μg/mL: A405, up to concentrations of 100 μg/mL, triplicate averaged
Procedure: The hemolytic activity of the peptides was determined using human red blood cells (RBCs, blood type O). The RBCs were collected from citric acid-treated blood by centrifugation at 3000× g for 5 min and washed three times with 10 mM PB (pH 7.4) containing 150 mM NaCl to remove the plasma and buffy coat. A suspension of 3% hematocrit in buffer with or without peptides was incubated for 60 min at 37 °C. Hemolysis was expressed as the hemoglobin content obtained from the absorbance of the supernatant at 405 nm after centrifugation at 3000× g for 5 min. A 100% hemolysis was determined based on hemoglobin release after the addition of 0.1% Triton X-100. The hemolysis percentage of the peptides was calculated using the following formula: % Hemolysis = [(Abs405nm in the peptide solution − Abs405nm in buffer)/(Abs405nm in 0.1% Triton X-100 − Abs405nm in buffer)] × 100
Hemolytic assays were performed in triplicate and the results were averaged.

λ-HindIII-digested DNA = assay: DNA-binding assay (gel retardation, EMSA); details: λ-HindIII-digested DNA 50 ng, 5 min room temperature, 1.0% agarose; for Electrophoretic mobility of DNA at 0.625 μg peptide: peptide 0.625 μg
Procedure: DNA binding assays were performed as described previously with minor modifications. This test assessed peptide-DNA binding by examining the inhibition of the rate of migration of DNA bands through agarose gels. A commercial molecular weight marker, λ-HindIII-digested DNA (50 ng) (Roche, Basel, Switzerland), was mixed with varying amounts of peptide (0 μg, 0.156 μg, 0.313 μg, 0.625 μg, and 1.25 μg) in 0.01% acetic acid, incubated at room temperature for 5 min, and then electrophoresed in 1.0% agarose gels containing 0.5 μg/mL ethidium bromide (EtBr).

V. harveyi = assay: URDA of non-heated and heated peptides; format: cell-based, Vibrio harveyi; details: non-heated and after 100 °C for 10 min
E. coli D31 = assay: URDA, MEC; format: cell-based, Escherichia coli; details: E. coli D31, Gram −, pH 6.6, 37 °C, triplicate averaged
Procedure: as §1
All tested bacteria and yeast were prepared as described above. The minimal effective concentration (MEC, μg/mL) of the synthetic peptides was calculated as the x-intercept of a plot of units against the log10 of the peptide concentration. […] The antimicrobial assay was performed in triplicate and the results were averaged.

E. coli ML35p = assay: Killing kinetic assay; format: cell-based, Escherichia coli; details: 10^6 CFU/mL, 37 °C; for Time to kill E. coli ML35p at 5× MEC: triplicate averaged
Procedure: To determine the killing activities of ofLBP-derived analogs, kinetic studies were performed using B. subtilis KCTC1021 and E. coli ML35p at 1× MEC and 5× MEC concentrations. Overnight culture of B. subtilis KCTC1021 and E. coli ML35p were diluted in TBS to a cell density of 10^6 CFU/mL and 1 mL of each suspension was exposed to each ofLBP-derived analog and incubated at 37 °C overnight. The resulting colonies were counted. Percent killing was calculated as the proportion of live bacteria at a given time point following the addition of peptide compared to the number of bacteria present prior to the addition of peptide. Control cultures of each bacterium were incubated without any peptide and assayed at time points corresponding to the test culture assays to ensure no spontaneous loss of viability. Killing kinetic assays were also performed in triplicate, and the results were averaged.

Substance | Antimicrobial activity against C. albicans (URDA) (C. albicans) | DNA polymerase inhibitory ability (DNA polymerase) | Antimicrobial activity against S. iniae (URDA) (S. iniae) | Hemolysis against RBCs up to 100 μg/mL [1] | Electrophoretic mobility of DNA at 0.625 μg peptide (λ-HindIII-digested DNA) | Electrophoretic mobility of DNA at 1.25 μg peptide (λ-HindIII-digested DNA; peptide 1.25 μg) | Antimicrobial activity against V. harveyi (URDA) (V. harveyi) | Minimal Effectives Concentration (E. coli D31) [µg/mL] | DNA polymerase inhibition at 1.25 μg (DNA polymerase; 1.25 μg peptide, compared to ofLBP 6A) | DNA polymerase inhibition at all tested concentrations (DNA polymerase; 0.313–2.5 μg peptide) | Killing of E. coli ML35p at 1× MEC (E. coli ML35p) | Time to kill E. coli ML35p at 5× MEC (E. coli ML35p) [min] | Hemolytic activity at 50 μg/mL [1] | Hemolytic activity from 50–100 μg/mL ([1]; concentrations of 50–100 μg/mL, 100% = 0.1% Triton X-100)
KLVKTQLKVLK [ofLBP 4N] | did not show any antimicrobial activity | no DNA polymerase inhibitory ability | did not show any antimicrobial activity | did not cause hemolysis | slightly inhibited | almost completely inhibited | did not show any antimicrobial activity | – | – | – | – | – | – | –
KLVKTWLKVLK [ofLBP 5A] | significant activity | strong DNA polymerase inhibitory ability | – | did not cause hemolysis | almost completely inhibited | – | – | 0.9 | less inhibitory activity | – | – | – | – | –
MKLVKTWLKVLK-NH2 [ofLBP 6A] | significant activity | strong DNA polymerase inhibitory ability | significant activity | – | almost completely inhibited | – | significant activity | 2.6 | – | complete inhibitory activity | did not kill | ≤ 60 | did not show significant hemolytic activity | –
Piscidin 1 [reference compound] | – | – | – | – | – | – | – | 2.0 | – | – | did not kill | ≤ 40 | – | –
RFPGLMMKLLV-NH2 (C-terminus assumed) [ofLBP 1N] | significant activity | – | significant activity | – | – | – | – | 1.3 | – | – | – | – | did not show significant hemolytic activity | –
RFPKLMMKLLV-NH2 [ofLBP 2A] | significant activity | – | significant activity | – | – | – | – | 0.5 | – | – | – | – | did not show significant hemolytic activity | 28%–50%
